# Data reported in PMC5650372 (Oncotarget, 2017).
# Where two headings read alike, the source gives them in different places.
# Assays:
# [1] = tested on: pDNA-PK S2056; experiment: Western blot of cell-free NHEJ reaction (MCF7 nuclear extract); type: biochemical, human
# Protocol: (§1) Nuclear protein (10-20 μg) prepared above was pre-treated with compounds as indicated on ice for 15 minutes. Twenty-five nanograms of EcoRI-digested pBluescript DNA (Stratagene, La Jolla, CA) were then added and the mixture was adjusted to 20 μL final volume in NHEJ buffer (50 mM Hepes-KOH pH 8.0, 40 mM KOAc, 1 mM Mg(OAc)2, 1 mM ATP, 0.1 mg/mL BSA, and 1 mM DTT). After incubation at 25°C for 60 minutes, the reaction was terminated by incubation with 1 μg/mL RNase A for 10 minutes followed by treatment with 2 mg/mL Protease K in 0.5% SDS at 55°C for 30 minutes. The reactions were run onto 0.8% agarose and the gel was stained with Sybr Green (S756, Invitrogen, Carlsbad, CA). For Western blots, an aliquot of the same reaction mixture described above was subjected to SDS-PAGE, transferred to the PVDF membrane, and immunoblotted with indicated antibodies.
# [2] = target: mTOR kinase (Homo sapiens, UniProt P42345); experiment: mTOR kinase enzyme assay; type: biochemical; details: average ± SEM
# Protocol: (§2) mTOR, DNA-PK and PI3K-alpha assays were to determine percent inhibition. An IC50 value was then
# (§3) performed as reported previously. estimated. […]
# [3] = tested on: NHEJ activity; experiment: Reconstituted cell-free NHEJ assay (MCF7 nuclear extract); type: biochemical, human
# Protocol: MCF7 human breast cancer cells (5-10 x 10^7 each) were incubated in 5 pellet volumes of cold hypotonic buffer (10 mM Hepes-KOH, pH 7.5, 1.5 mM MgCl2, 5 mM KCl, and 0.5 mM DTT) for 20 minutes and were homogenized in a tight-fitting glass dounce homogenizer for 10-20 strokes. The nuclei were then collected by low-speed centrifugation and nuclear proteins were extracted by high-salt buffer (50 mM Tris-HCl, pH 7.5, 1 M KCl, 2 mM EDTA, 1 mM DTT, and protease inhibitors). The extracted nuclear proteins were dialyzed against 1 L of dialysis buffer (20 mM Tris-HCl, pH 8.0, 20% glycerol, 0.1 M KOAc, 0.5 mM EDTA, and 1 mM DTT) for 1 hour and were used for the in vitro NHEJ assay.
# as §1
# [4] = target: DNA-PK (Homo sapiens, UniProt P78527); experiment: DNA-PK enzyme assay; type: biochemical; details: average ± SEM; CC214-1 n=2
# Protocol: as §2, §3
# [5] = tested on: NCI-H1975 and SW1573 cells; experiment: Clonogenic assay alone or with etoposide; type: cell-based, human; details: for combination with 6.8 μM etoposide on colony formation: 10 μM compound, 4 hours; for effect on cell survival, single agent: 4 hours treatment alone
# Protocol: Media were changed every three days. Plates were incubated for a total of about two weeks then fixed and stained using the DIFF QUIK staining kit. Colonies were imaged and counted.
# [6] = tested on: NHEJ in Cal-51 cells; experiment: 384-well image-based cellular NHEJ assay; type: cell-based; details: Homo sapiens; Cal-51, n=3
# Excerpt: (§4) ATM and ATR assay and IC50 determination Cellular NHEJ assay
# (§5) HA-ATM and FLAG-ATR (HA-labeled ATM, and The experimental design is illustrated in FLAG-labeled ATR) were each transiently expressed in Supplementary Figure 4. Cal-51 breast cancer cells HEK293 cells (293FT cells, Invitrogen Cat: R700-07) were separately transfected with pEGFP plasmid (6085-using Lipofectamine as transfection reagent. Cells were 1, Clontech, Mountain View, CA) digested with either harvested 6 days post transfection and spun down to EcoRI (to measure NHEJ) or StuI (to measure transfection separate cells from media. Cells were then lysed using a efficiency) using a Amaxa cell line nuclearfector kit V lysis buffer (50 mM Tris buffer, (Tris(hydroxylmethyl)- (CCA-1003, Lonza). Immediately after the transfection, aminomethane, pH 7.5), 100 mM NaCl, 50 mM βGOP, the cells were treated with DMSO or compounds at 10% Glycerol, 0.5% Tween 20, 1 mM EDTA, 25 mM indicated concentrations for 24 hours and GFP-positive sodium fluoride (NaF), 20 nM microcystine, 2 mM cells were counted under a fluorescent microscope. NHEJ phenylmethylsulfonylfluoride (PMSF) and protease activity was calculated by the number of GFP-positive inhibitor cocktail) followed by sonication 3 times and a cells in cells transfected with pEGFP-EcoRI divided by final spin at 20,000 rpm for 30 minutes to generate a clear that in cells transfected with pEGFP-StuI, multiplied by lysate. To perform the immunoprecipitation, enzymes were 100. […]
# (§6) or FLAG tags. Beads plus enzymes were then washed 3 developed. Different cell lines were transfected using times with lysis buffer and spun down at 1000 rpm for the procedure described above and subsequently seeded 1 minute. Beads plus enzymes were resuspended in lysis into 384-well plates at optimized density for individual buffer and kept at 4°C until assay. Assays for ATM and cell lines. Cells were then treated with compounds at ATR were conducted in a 33P radioactive assay format. increasing concentrations. GFP+ cells were imaged Assay buffer contained the following reagents: 1 mg/mL and quantitated using the IncuCyte (Essen Bioscience, GST-p53 (glutathione S-transferase–p53 fusion protein) Ann Arbor, MI). NHEJ activity was then normalized substrate (expressed in-house), 20 μg/mL calf thymus to the DMSO control and fitted to the Sigmoidal Dose-DNA activator (Sigma), 100 μg/mL BSA, 200 μM EGTA Response Model (IDBS XLFit Model 205; London, UK)
# [7] = tested on: NHEJ in HCT116 colorectal cancer cells; experiment: 384-well image-based cellular NHEJ assay; type: cell-based; details: Homo sapiens, HCT-116; HCT116, n=3
# Excerpt: as §4, §5, §6
# [8] = tested on: NHEJ in MDA-MB-231 breast cancer cells; experiment: 384-well image-based cellular NHEJ assay; type: cell-based; details: Homo sapiens; MDA-MB-231, n=3
# Excerpt: as §4, §5, §6
# [9] = tested on: NHEJ in PC3 prostate cancer cells; experiment: 384-well image-based cellular NHEJ assay; type: cell-based; details: Homo sapiens; PC3, n=3
# Excerpt: as §4, §5, §6
# [10] = target: T1, ATR (Homo sapiens, UniProt Q13535); experiment: ATR 33P radioactive kinase assay (immunoprecipitated FLAG-ATR); type: biochemical
# T1 construct: made in house; host or cells: HEK293 (293FT cells, Invitrogen R700-07), transient transfection, immunoprecipitation on Protein G Sepharose
# T1 sequence (Q13535 whole entry): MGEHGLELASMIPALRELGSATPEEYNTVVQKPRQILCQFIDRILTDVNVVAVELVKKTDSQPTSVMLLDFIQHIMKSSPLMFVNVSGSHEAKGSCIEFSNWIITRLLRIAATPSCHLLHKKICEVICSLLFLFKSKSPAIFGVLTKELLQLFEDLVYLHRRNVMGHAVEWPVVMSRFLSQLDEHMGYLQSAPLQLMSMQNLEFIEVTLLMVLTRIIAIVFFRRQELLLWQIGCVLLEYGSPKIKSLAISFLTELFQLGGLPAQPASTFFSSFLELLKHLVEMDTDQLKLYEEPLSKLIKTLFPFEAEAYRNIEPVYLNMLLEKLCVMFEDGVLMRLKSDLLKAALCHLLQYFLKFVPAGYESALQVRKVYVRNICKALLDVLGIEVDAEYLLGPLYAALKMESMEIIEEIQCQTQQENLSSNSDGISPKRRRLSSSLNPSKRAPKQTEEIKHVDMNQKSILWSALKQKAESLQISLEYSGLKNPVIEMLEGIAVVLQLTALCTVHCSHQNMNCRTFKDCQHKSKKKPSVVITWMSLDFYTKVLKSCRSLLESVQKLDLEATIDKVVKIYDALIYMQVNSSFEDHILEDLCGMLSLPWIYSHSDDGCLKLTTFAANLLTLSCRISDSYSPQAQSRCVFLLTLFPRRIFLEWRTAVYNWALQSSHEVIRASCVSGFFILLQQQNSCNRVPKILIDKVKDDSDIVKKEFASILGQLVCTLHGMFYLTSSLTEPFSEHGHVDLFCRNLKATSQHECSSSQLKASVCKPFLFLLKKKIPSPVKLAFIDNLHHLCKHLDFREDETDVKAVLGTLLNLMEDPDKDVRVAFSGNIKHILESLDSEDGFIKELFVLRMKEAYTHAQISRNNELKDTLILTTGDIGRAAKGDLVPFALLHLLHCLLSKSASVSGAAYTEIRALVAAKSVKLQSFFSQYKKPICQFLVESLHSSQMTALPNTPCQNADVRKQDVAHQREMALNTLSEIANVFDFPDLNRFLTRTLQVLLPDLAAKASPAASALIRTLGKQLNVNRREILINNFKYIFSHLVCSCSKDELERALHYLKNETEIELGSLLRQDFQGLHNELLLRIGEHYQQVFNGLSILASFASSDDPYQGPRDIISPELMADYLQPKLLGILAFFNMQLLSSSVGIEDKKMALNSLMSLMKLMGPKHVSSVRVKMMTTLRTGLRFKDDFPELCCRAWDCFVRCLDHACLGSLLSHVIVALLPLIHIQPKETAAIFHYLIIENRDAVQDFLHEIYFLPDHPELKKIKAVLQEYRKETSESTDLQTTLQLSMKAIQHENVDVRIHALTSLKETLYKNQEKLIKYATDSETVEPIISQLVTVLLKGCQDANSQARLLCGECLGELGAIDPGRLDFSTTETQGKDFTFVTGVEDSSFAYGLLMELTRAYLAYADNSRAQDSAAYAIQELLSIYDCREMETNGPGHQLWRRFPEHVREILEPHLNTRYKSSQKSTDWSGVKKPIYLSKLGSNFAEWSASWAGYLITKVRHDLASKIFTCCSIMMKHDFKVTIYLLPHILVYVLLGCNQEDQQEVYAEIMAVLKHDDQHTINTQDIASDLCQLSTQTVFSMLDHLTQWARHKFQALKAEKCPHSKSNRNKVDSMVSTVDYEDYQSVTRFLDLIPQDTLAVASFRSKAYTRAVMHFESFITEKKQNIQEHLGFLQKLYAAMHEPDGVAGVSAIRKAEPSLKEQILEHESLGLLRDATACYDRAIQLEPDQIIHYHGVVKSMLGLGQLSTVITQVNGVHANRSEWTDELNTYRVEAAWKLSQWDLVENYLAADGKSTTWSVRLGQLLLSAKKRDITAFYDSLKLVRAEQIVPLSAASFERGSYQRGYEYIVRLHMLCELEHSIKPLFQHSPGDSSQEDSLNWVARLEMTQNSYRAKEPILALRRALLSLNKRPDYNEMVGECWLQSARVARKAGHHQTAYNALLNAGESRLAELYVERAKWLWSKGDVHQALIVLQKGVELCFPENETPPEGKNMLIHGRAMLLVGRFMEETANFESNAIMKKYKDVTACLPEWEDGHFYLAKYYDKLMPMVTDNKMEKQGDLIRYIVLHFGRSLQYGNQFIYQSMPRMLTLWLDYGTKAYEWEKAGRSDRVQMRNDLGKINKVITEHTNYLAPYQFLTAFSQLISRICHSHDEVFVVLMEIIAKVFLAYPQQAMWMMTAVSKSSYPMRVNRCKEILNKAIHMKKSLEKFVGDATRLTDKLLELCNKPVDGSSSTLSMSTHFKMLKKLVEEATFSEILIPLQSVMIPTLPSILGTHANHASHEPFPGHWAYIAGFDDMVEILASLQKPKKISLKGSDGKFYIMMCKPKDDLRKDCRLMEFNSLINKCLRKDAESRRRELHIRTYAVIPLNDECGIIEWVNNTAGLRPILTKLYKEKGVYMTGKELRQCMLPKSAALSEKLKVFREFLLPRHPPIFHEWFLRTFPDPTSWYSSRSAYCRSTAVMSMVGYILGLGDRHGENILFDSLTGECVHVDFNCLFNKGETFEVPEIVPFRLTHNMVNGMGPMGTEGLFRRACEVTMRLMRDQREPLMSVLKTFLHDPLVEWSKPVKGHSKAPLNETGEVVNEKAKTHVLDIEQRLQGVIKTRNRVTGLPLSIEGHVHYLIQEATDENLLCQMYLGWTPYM
# Protocol: deficient cell growth in vitro […]
# incorporated in the corresponding no inhibitor control mTOR, DNA-PK and PI3K-alpha assays were to determine percent inhibition. An IC50 value was then performed as reported previously. estimated.
# as §4
# as §5, with “microscope.” for “microscope. NHEJ phenylmethylsulfonylfluoride (PMSF) and protease activity was calculated by the number of GFP-positive inhibitor cocktail) followed by sonication 3 times and a cells in cells transfected with pEGFP-EcoRI divided by final spin at 20,000 rpm for 30 minutes to generate a clear that in cells transfected with pEGFP-StuI, multiplied by lysate. To perform the immunoprecipitation, enzymes were 100.”
# [11] = tested on: pATM S1981; experiment: Western blot of cell-free NHEJ reaction (MCF7 nuclear extract); type: biochemical, human; details: MCF7 nuclear extract with linear dsDNA
# Protocol: as §1
# [12] = tested on: pChk2 T68; experiment: as above; type: biochemical, human; details: MCF7 nuclear extract, 0.05, 0.5 or 5 μM
# Protocol: as §1
# [13] = target: T2, ATM (Homo sapiens, UniProt Q13315); set-up: method as in earlier work; details: Lit. reported value ref 3; cited from earlier work
# T2 construct: made in house; host or cells: HEK293 (293FT cells, Invitrogen R700-07), transient transfection, immunoprecipitation on Protein G Sepharose
# [14] = tested on: Rad51-foci in LoVo cells; experiment: Rad51-foci immunofluorescence (homologous recombination); type: cell-based, human
# [15] = target: T1, ATR; set-up: method as in earlier work; details: Lit. reported value ref 3; cited from earlier work
# [16] = target: T3, DNA-PKcs, XRCC4 and DNA ligase IV on DNA (Homo sapiens, UniProt P78527); experiment: DNA end binding assay (MCF7 nuclear extract); type: biochemical; details: 5 μM, MCF7 nuclear extract, 10, 30, 60 minutes
# T3 construct: endogenous in cells; host or cells: MCF7 nuclear extract
# Excerpt: One kb of DNA fragment, including an EcoRI sequence in the middle, was amplified by PCR using pEGFP as a template and a pair of biotinylated EGFP primers (5′-biotin-[…]-3′ and 5′-biotin-[…]-3′: Valuegene, San Diego, CA). The amplified DNA fragment was cleaved by EcoRI to produce two 0.5 kb biotinylated DNA fragments, and was purified using the QIAquick PCR purification kit (Qiagen). […] An aliquot of the reaction was removed at each time point to separate the supernatant and the beads. The supernatant was subjected to SDS-PAGE and immunoblotting with indicated antibodies. The beads were washed twice with 250 μL of IP buffer (25 mM Hepes-KOH, pH 7.5, 100 mM NaCl, 20% glycerol, 5 mM EDTA, 1 mM DTT, 0.05% Nonidet P-40, 10 mM NaF, and protease inhibitor mixture) and subjected to SDS-PAGE and immunoblotting with indicated antibodies.
# [17] = concentration series (0.05 to 5 μM)
Structure (SMILES),"inhibition of pDNA-PK S2056, cell-free [1]",IC50 [2] [µM],IC50 [4] [µM],combination with 6.8 μM etoposide on colony formation [5],"effect on cell survival, single agent [5]",IC50 [6] [µM],IC50 [7] [µM],IC50 [8] [µM],IC50 [9] [µM],"inhibition of NHEJ activity, cell-free [3, 17]","inhibition of pATM S1981, cell-free [11]","inhibition of pChk2 T68, cell-free [12]",other results
"O=c1[nH]c2ncc(-c3ccc(-c4nc[nH]n4)cc3)nc2n1CCC1CCOCC1 [CC214-1, 6-(4-(1H-1,2,4-triazol-3-yl)phenyl)-1-(2-(tetrahydro-2H-pyran-4-yl)ethyl)-1,3-dihydro-2H-imidazo[4,5-b]pyrazin-2-one]",to a smaller extent,0.002 ± 0.0002,0.141,,,,,,,,,,"inhibition of NHEJ activity, cell-free ([3]; 5 μM): Minimal inhibition"
"CC(C)(O)c1ccc(-c2cnc3c(n2)N(CC2CCOCC2)CC(=O)N3)cn1 [CC214-2, 6-(6-(2-hydroxypropan-2-yl)pyridin-3-yl)-4-((tetrahydro-2H-pyran-4-yl)methyl)-3,4-dihydropyrazino[2,3-b]pyrazin-2(1H)-one]",did not inhibit,,> 10,synergy was not observed,minimal effect on cell survival,> 10,> 10,> 10,> 10,not changed,,,IC50 [10]: > 3 µM
"O=c1cc(-c2cccc3c2Sc2ccccc2S3)oc(N2CCOCC2)c1 [KU55933, 2-(4-morpholinyl)-6-(1-thianthrenyl)-4H-pyran-4-one]",not DNA-PK phosphorylation,,,,,,,,,did not inhibit,efficiently inhibited,concentration-dependent inhibition,
"O=c1cc(N2CCOCC2)oc2c(-c3cccc4c3sc3ccccc34)cccc12 [NU7441, 8-(4-dibenzothienyl)-2-(4-morpholinyl)-4H-1-benzopyran-4-one]",also inhibited,1.64 ± 0.2,,synergistic effect,minimal effect on cell survival,2.56 ± 0.84,6.22 ± 6.76,0.63 ± 0.08,1.03 ± 0.17,Inhibition of NHEJ was also observed,reduction,also inhibited,"IC50 [13]: > 100 µM; Rad51-foci positive nuclei (HR efficiency) ([14]; 5 μM compound with 0.1 μM doxorubicin): 10.3%; IC50 [15]: > 100 µM; DNA-PKcs, XRCC4 and DNA ligase IV bound to DNA over time [16]: retained from 10 minutes through the end of the reaction at 60 minutes"
COc1cccc2c1C(=O)c1c(O)c3c(c(O)c1C2=O)C[C@@](O)(C(=O)CO)C[C@@H]3O[C@H]1C[C@H](N)[C@H](O)[C@H](C)O1 [doxorubicin],,,,,,,,,,,,,Rad51-foci positive nuclei (HR efficiency) ([14]; 0.1 μM doxorubicin only): 24%
COc1cc([C@@H]2c3cc4c(cc3[C@@H](O[C@@H]3O[C@@H]5CO[C@@H](C)O[C@H]5[C@H](O)[C@H]3O)[C@H]3COC(=O)[C@H]23)OCO4)cc(OC)c1O [etoposide],,,,,substantially impairs survival,,,,,,,,
